Source: patent US11297835B2, “Aqueous compositions of perillic acid compounds” (B.R.A.I.N. BIOTECHNOLOGY RESEARCH AND INFORMATION NETWORK AG, priority 2016, dated 2022)

How the values were obtained:
Assay in all cases: MIC, microdilution method adapted from DIN EN ISO 20776-1:2006
Assay type in all cases: cell-based
[1] = tested on: Candida albicans ATCC®10231; conditions: no growth after 24 h and 72 h
Method: (§1) The antimicrobial activity of sodium perillate was examined in vitro using the microdilution method adapted from DIN EN ISO 20776-1:2006. R-Perillic acid and S-perillic acid were used as reference compounds. All experiments were done in 96-well plates in a final volume of 200 μL. Stock solutions of the investigated compounds were prepared in 25 mM buffer. The procedure was conducted as following: 4 μL of the particular stock solution were mixed with 196 μL culture medium containing a defined inoculum of the respective target strain. Sterile controls (not inoculated) and growth controls (buffer in-stead of compound added) were performed. All compound concentrations were tested in triplicate. The following strains were examined: Escherichia coli ATCC®8739, Pseudomonas aeruginosa ATCC®9027, Stapyhlococcus aureus ATCC®6538, Candida albicans ATCC®10231 and Aspergillus brasiliensis ATCC®16404. The following culture media were used: Mueller-Hinton II Bouillon (Escherichia coli, Pseudomonas aeruginosa and Staphylococcus aureus), yeast peptone dextrose (Candida albicans) and potato dextrose (Aspergillus brasiliensis). All culture media were buffered with 25 mM MES-buffer. For compound testing the plates were incubated at 37° C. (Escherichia coli, Pseudomonas aeruginosa and Staphylococcus aureus), at 28° C. (Candida albicans) and at 25° C. (Aspergillus brasiliensis). Plates were evaluated after 24 h and 72 h, respectively. The minimal inhibitory concentration is defined as the concentration where no microbial growth was observed after 24 h and 72 h incubation at the specified temperature.
(§2) Table 1 Determination of the minimal inhibition concentration (MIC, % w/v) of sodium perillate against five classical spoiling organisms under acidic (pH<6.5) and alkaline (pH>7.5) conditions using the microdilution method adapted according to DIN EN ISO 20776-1:2006. The experiments were performed in micro-well plates in a final volume of 200 μL. MIC-values are given according to the following letter code. A>1% w/v, B=0.5-1% w/v, C=0.1-0.5% w/v. D<0.1% w/v.

[2] = tested on: Staphylococcus aureus ATCC®6538; conditions: no growth after 24 h and 72 h
Method: as §1, §2

[3] = tested on: Aspergillus brasiliensis ATCC®16404; conditions: pH <6.5; no growth after 24 h and 72 h
Method: as §1, §2

[4] = tested on: Escherichia coli ATCC®8739; conditions: no growth after 24 h and 72 h
Method: as §1, §2

[5] = tested on: Pseudomonas aeruginosa ATCC®9027; conditions: no growth after 24 h and 72 h
Method: as §1, §2

Row | MIC ([1]; pH <6.5) | MIC ([1]; pH >7.5) | MIC ([2]; pH <6.5) | MIC ([2]; pH >7.5) | MIC [3] | MIC ([4]; pH <6.5) | MIC ([4]; pH >7.5) | MIC ([5]; pH <6.5) | MIC ([5]; pH >7.5) | Compound
1 | D (D<0.1% w/v) | C (C=0.1-0.5% w/v) | D (D<0.1% w/v) | B (B=0.5-1% w/v) | D (D<0.1% w/v) | C (C=0.1-0.5% w/v) | B (B=0.5-1% w/v) | B (B=0.5-1% w/v) | A (A>1% w/v) | C=C(C)[C@@H]1CC=C(C(=O)O)CC1 [S-Perillic Acid, S-perillic acid]
2 | D (D<0.1% w/v) | C (C=0.1-0.5% w/v) | D (D<0.1% w/v) | B (B=0.5-1% w/v) | D (D<0.1% w/v) | C (C=0.1-0.5% w/v) | B (B=0.5-1% w/v) | B (B=0.5-1% w/v) | A (A>1% w/v) | C=C(C)[C@H]1CC=C(C(=O)O)CC1 [R-Perillic Acid, R-Perillic acid]
